Experimental data as given in patent publication EP0535528A1, “Antibacterial 5-Nitro-1-methyl-imidazolyl-3-terbutyl-2-hydroxy-aryl-carbinols” (EURORESEARCH S.r.L., priority 1991, dated 1993).
Values after ≈ are worked out from the molar mass of the structure shown.

Tests used:
Helicobapter pylori [1] = assay: Minimal inhibiting concentration (agar dilution); format: cell-based
Experimental: Substances under examination: EU11100, EU11102, EU11103, EU11104. Comparison substance: Metronidazole Solubilization of the substances: All the substances to be studied are dissolved at room temperature in DMSO. […] 10 strains of Helicobapter pylori are used of recent clinical isolation […] The sowing of the bacteria, prepared as described in the preceding test is carried out by means a "multi-point inoculator". After 48 hours incubation under the condition described in the preceding test, the plates are examined and the Minimal Inhibiting Concentration is evaluated, namely that dose corresponding to growth absence.

Helicobapter pylori [2] = assay: Inhibition halos of the bacterial growth (impregnated disks on agar); format: cell-based; details: for activity against the Helicobapter pylori strains used: 10 strains
Experimental: Comparison substance: Metronidazole Solubilization of the substances : All the substances to be studied are dissolved at room temperature in DMSO.
Some commercially available antibiogram disks are so impregnated with the above mentioned compounds that each disk has concentration equal to 10, 1, 0.1, 0.01 µg.
10 strains of Helicobapter pylori are used of recent clinical isolation.
Columbia Blood Agar Base is used, containing 5% of defibrinated horse blood, 2 % of calf serum, 2 vials of Vitox per liter of medium and Vancomicine (10 µg/ml) Trimetoprim lactate(5 µg/ml) and Polimixin B (2.5 U/ml).
0.1 ml of a suspension of the different used strains are uniformly distributed onto Petri plates, containing 20 ml of Columbia Blood Agar base, obtained by taking a sample, by means of a platinum loop, of different colonies from a 48 hours culture, grown in anaerobiosis jars with "Gas Pack", without a catalyst and diluted into a physiological solution.
4 disks per plate, previously impregnated with the substances under examination, are then placed onto the agar layer of each plate.
After 48 hours of anaerobiosis incubation, as above described, the inhibition halos of the bacterial growth, produced by the different activity of the substances inside the agar, are evaluated.

Cc1ncc([N+](=O)[O-])n1CCO [Metronidazole, reference compound]
MIC50 (Helicobapter pylori [1]; 10 strains): 0.12 µg/mL (≈ 0.701 µM)
MIC90 (Helicobapter pylori [1]; 10 strains): 0.25 µg/mL (≈ 1.46 µM)
MIC range (Helicobapter pylori [1]; 10 strains): 0.015 to 0.25 µg/mL
MIC (Helicobapter pylori [1]; strain 1): 0.25 µg/mL (≈ 1.46 µM)
MIC (Helicobapter pylori [1]; strain 2): 0.06 µg/mL (≈ 0.351 µM)
MIC (Helicobapter pylori [1]; strain 3): 0.25 µg/mL (≈ 1.46 µM)
MIC (Helicobapter pylori [1]; strain 4): 0.25 µg/mL (≈ 1.46 µM)
MIC (Helicobapter pylori [1]; strain 5): 0.015 µg/mL (≈ 0.0876 µM)
MIC (Helicobapter pylori [1]; strain 6): 0.12 µg/mL (≈ 0.701 µM)
MIC (Helicobapter pylori [1]; strain 7): 0.25 µg/mL (≈ 1.46 µM)
MIC (Helicobapter pylori [1]; strain 8): 0.25 µg/mL (≈ 1.46 µM)
MIC (Helicobapter pylori [1]; strain 9): 0.12 µg/mL (≈ 0.701 µM)
MIC (Helicobapter pylori [1]; strain 10): 0.12 µg/mL (≈ 0.701 µM)
activity against the Helicobapter pylori strains used (Helicobapter pylori [2]; 0.1 µg/disk): inactive
activity against the Helicobapter pylori strains used (Helicobapter pylori [2]; 1 µg/disk): inactive
Inhibition halo (mm), Average (Helicobapter pylori [2]; average of 10 strains, 10 µg/disk): 39.5 mm
activity against Helicobapter pylori (Helicobapter pylori [2]; general statement, at a low concentration): poorly effective
Inhibition halo (mm) at the concentration (µg/disk) (Helicobapter pylori [2]; strain 1, 0.01 µg/disk): 0 mm
Inhibition halo (mm) at the concentration (µg/disk) (Helicobapter pylori [2]; strain 1, 0.1 µg/disk): 0 mm
Inhibition halo (mm) at the concentration (µg/disk) (Helicobapter pylori [2]; strain 1, 1 µg/disk): 0 mm
Inhibition halo (mm) at the concentration (µg/disk) (Helicobapter pylori [2]; strain 1, 10 µg/disk): 45 mm
Inhibition halo (mm) at the concentration (µg/disk) (Helicobapter pylori [2]; strain 2, 0.01 µg/disk): 0 mm
Inhibition halo (mm) at the concentration (µg/disk) (Helicobapter pylori [2]; strain 2, 0.1 µg/disk): 0 mm
Inhibition halo (mm) at the concentration (µg/disk) (Helicobapter pylori [2]; strain 2, 1 µg/disk): 0 mm
Inhibition halo (mm) at the concentration (µg/disk) (Helicobapter pylori [2]; strain 2, 10 µg/disk): 33 mm
Inhibition halo (mm) at the concentration (µg/disk) (Helicobapter pylori [2]; strain 3, 0.01 µg/disk): 0 mm
Inhibition halo (mm) at the concentration (µg/disk) (Helicobapter pylori [2]; strain 3, 0.1 µg/disk): 0 mm
Inhibition halo (mm) at the concentration (µg/disk) (Helicobapter pylori [2]; strain 3, 1 µg/disk): 0 mm
Inhibition halo (mm) at the concentration (µg/disk) (Helicobapter pylori [2]; strain 3, 10 µg/disk): 45 mm
Inhibition halo (mm) at the concentration (µg/disk) (Helicobapter pylori [2]; strain 4, 0.01 µg/disk): 0 mm
Inhibition halo (mm) at the concentration (µg/disk) (Helicobapter pylori [2]; strain 4, 0.1 µg/disk): 0 mm
Inhibition halo (mm) at the concentration (µg/disk) (Helicobapter pylori [2]; strain 4, 1 µg/disk): 0 mm
Inhibition halo (mm) at the concentration (µg/disk) (Helicobapter pylori [2]; strain 4, 10 µg/disk): 42 mm
Inhibition halo (mm) at the concentration (µg/disk) (Helicobapter pylori [2]; strain 5, 0.01 µg/disk): 0 mm
Inhibition halo (mm) at the concentration (µg/disk) (Helicobapter pylori [2]; strain 5, 0.1 µg/disk): 0 mm
Inhibition halo (mm) at the concentration (µg/disk) (Helicobapter pylori [2]; strain 5, 1 µg/disk): 0 mm
Inhibition halo (mm) at the concentration (µg/disk) (Helicobapter pylori [2]; strain 5, 10 µg/disk): 42 mm
Inhibition halo (mm) at the concentration (µg/disk) (Helicobapter pylori [2]; strain 6, 0.01 µg/disk): 0 mm
Inhibition halo (mm) at the concentration (µg/disk) (Helicobapter pylori [2]; strain 6, 0.1 µg/disk): 0 mm
Inhibition halo (mm) at the concentration (µg/disk) (Helicobapter pylori [2]; strain 6, 1 µg/disk): 0 mm
Inhibition halo (mm) at the concentration (µg/disk) (Helicobapter pylori [2]; strain 6, 10 µg/disk): 41 mm
Inhibition halo (mm) at the concentration (µg/disk) (Helicobapter pylori [2]; strain 7, 0.01 µg/disk): 0 mm
Inhibition halo (mm) at the concentration (µg/disk) (Helicobapter pylori [2]; strain 7, 0.1 µg/disk): 0 mm
Inhibition halo (mm) at the concentration (µg/disk) (Helicobapter pylori [2]; strain 7, 1 µg/disk): 0 mm
Inhibition halo (mm) at the concentration (µg/disk) (Helicobapter pylori [2]; strain 7, 10 µg/disk): 32 mm
Inhibition halo (mm) at the concentration (µg/disk) (Helicobapter pylori [2]; strain 8, 0.01 µg/disk): 0 mm
Inhibition halo (mm) at the concentration (µg/disk) (Helicobapter pylori [2]; strain 8, 0.1 µg/disk): 0 mm
Inhibition halo (mm) at the concentration (µg/disk) (Helicobapter pylori [2]; strain 8, 1 µg/disk): 0 mm
Inhibition halo (mm) at the concentration (µg/disk) (Helicobapter pylori [2]; strain 8, 10 µg/disk): 40 mm
Inhibition halo (mm) at the concentration (µg/disk) (Helicobapter pylori [2]; strain 9, 0.01 µg/disk): 0 mm
Inhibition halo (mm) at the concentration (µg/disk) (Helicobapter pylori [2]; strain 9, 0.1 µg/disk): 0 mm
Inhibition halo (mm) at the concentration (µg/disk) (Helicobapter pylori [2]; strain 9, 1 µg/disk): 0 mm
Inhibition halo (mm) at the concentration (µg/disk) (Helicobapter pylori [2]; strain 9, 10 µg/disk): 38 mm
Inhibition halo (mm) at the concentration (µg/disk) (Helicobapter pylori [2]; strain 10, 0.01 µg/disk): 0 mm
Inhibition halo (mm) at the concentration (µg/disk) (Helicobapter pylori [2]; strain 10, 0.1 µg/disk): 0 mm
Inhibition halo (mm) at the concentration (µg/disk) (Helicobapter pylori [2]; strain 10, 1 µg/disk): 0 mm
Inhibition halo (mm) at the concentration (µg/disk) (Helicobapter pylori [2]; strain 10, 10 µg/disk): 37 mm
